Laboratory results as given in patent publication US11213583B2, “Methods and compositions for treating cancer and infectious diseases” (Cedars-Sinai Medical Center, priority 2014, dated 2022).

Tests used:
RENCA tumors = experiment: RENCA tumor treatment model in Balb/c mice; format: in vivo; conditions: αCD4 days 6 and 10; temsirolimus daily days 14 to 34; no cancer vaccine
Method: (§1) (a) RENCA-CA9 tumor cells were implanted into Balb/C mice (n=5 per group) on day 0. CD4 lymphocytes were depleted with αCD4 antibody on days 6 and 10. Mice were treated with daily temsirolimus on days 14 to 34. Tumor growth was monitored. Results are representative of triplicate experiments. (b) In the same experiment, lymphocytes were harvested on day 45, restimulated with CA9 peptide, and stained for CD8 and IFNγ. (c) Following CD4 depletion, spleen, lymph node and blood were collected on days 0, 1, 10. Lymphocytes were stained for CD4, CD8 and FoxP3 and analyzed by flow cytometry. (c-e) The percentages of CD4 cells in the spleen, lymph node and blood on days 0, 1, and 10 following CD4 depletion are reported. (d) Following CD4 depletion, percentages of splenocytes that are CD4 or CD8 positive are reported, and percent of CD4 cells that are FoxP3 positive is reported. (e) In the same experiment, the absolute numbers of splenocytes positive for CD4, CD8, and CD4/FoxP3 are reported. *p<0.05, **p<0.01,***p<0.005.
Furthermore, the presence of tumor itself increased Tregs (FIG. 8). Therefore, we hypothesized that the antitumor immunity induced by mTOR inhibition can be further enhanced by targeting Tregs. Currently there is no clinical strategy to selectively remove Tregs; however, it is feasible to deplete all CD4 lymphocytes. However, CD4 effector cells are required for immune activation. […]

CD8 lymphocytes (IFN-γ) = experiment: Tumor-specific IFN-γ response of lymphocytes harvested on day 45, RENCA model; format: in vivo, mice; conditions: lymphocytes harvested day 45, restimulated with CA9 peptide
Method: as §1
In the same experiment, lymphocytes were harvested on day 45 and assessed for tumor-specific IFN-γ response (FIG. 2b). In tumor-bearing mice that received no treatment, there was no IFN-γ response. […] To characterize the CD4 lymphocyte depletion in response to αCD4, naïve mice were treated with a single dose of αCD4.

RENCA tumor cells = conditions: Wang et al. Br J Cancer 2011; cited from earlier work
Pmel-1 lymphocytes = experiment: Flow cytometry of adoptively transferred Thy1.1 Pmel-1 lymphocytes after DC vaccine and temsirolimus; conditions: with DC vaccine
[1] = system: CD4+FoxP3+ lymphocytes / CTL function; experiment: Treg depletion with diphtheria toxin in DEREG mice, in vivo CTL assay

Compound | RENCA tumor growth (RENCA tumors) | tumor-specific IFN-γ response (CD8 lymphocytes (IFN-γ)) | growth of RENCA tumor cells in vitro (RENCA tumor cells) | Eomes expression in Pmel-1 lymphocytes (Pmel-1 lymphocytes) | Tbet expression in Pmel-1 lymphocytes (Pmel-1 lymphocytes) | Tregs (Pmel-1 lymphocytes) | CD4+FoxP3+ lymphocytes [1]
CO[C@H]1C[C@@H]2CC[C@@H](C)[C@@](O)(O2)C(=O)C(=O)N2CCCC[C@H]2C(=O)O[C@H]([C@H](C)C[C@@H]2CC[C@@H](OC(=O)C(C)(CO)CO)[C@H](OC)C2)CC(=O)[C@H](C)/C=C(\C)[C@@H](O)[C@@H](OC)C(=O)[C@H](C)C[C@H](C)/C=C/C=C/C=C/1C [temsirolimus] | effective in decreasing tumor growth | some IFN-γ response | directly inhibit the growth of RENCA tumor cells in vitro | increased expression of Eomes | decrease in Tbet expression | increase in Tregs | 
diphtheria toxin [DT] |  |  |  |  |  |  | removed nearly all CD4+FoxP3+ lymphocytes
